Here are results for 25 compounds from patent US12098144B2, “Piperazine indazole glucocorticoid receptor antagonists” (Corcept Therapeutics Incorporated, priority 2021, dated 2024).

The assay has as its target T1, glucocorticoid receptor (Homo sapiens, UniProt P04150).
T1 construct: endogenous in cells; ATCC cat
T1 sequence (P04150 1-777): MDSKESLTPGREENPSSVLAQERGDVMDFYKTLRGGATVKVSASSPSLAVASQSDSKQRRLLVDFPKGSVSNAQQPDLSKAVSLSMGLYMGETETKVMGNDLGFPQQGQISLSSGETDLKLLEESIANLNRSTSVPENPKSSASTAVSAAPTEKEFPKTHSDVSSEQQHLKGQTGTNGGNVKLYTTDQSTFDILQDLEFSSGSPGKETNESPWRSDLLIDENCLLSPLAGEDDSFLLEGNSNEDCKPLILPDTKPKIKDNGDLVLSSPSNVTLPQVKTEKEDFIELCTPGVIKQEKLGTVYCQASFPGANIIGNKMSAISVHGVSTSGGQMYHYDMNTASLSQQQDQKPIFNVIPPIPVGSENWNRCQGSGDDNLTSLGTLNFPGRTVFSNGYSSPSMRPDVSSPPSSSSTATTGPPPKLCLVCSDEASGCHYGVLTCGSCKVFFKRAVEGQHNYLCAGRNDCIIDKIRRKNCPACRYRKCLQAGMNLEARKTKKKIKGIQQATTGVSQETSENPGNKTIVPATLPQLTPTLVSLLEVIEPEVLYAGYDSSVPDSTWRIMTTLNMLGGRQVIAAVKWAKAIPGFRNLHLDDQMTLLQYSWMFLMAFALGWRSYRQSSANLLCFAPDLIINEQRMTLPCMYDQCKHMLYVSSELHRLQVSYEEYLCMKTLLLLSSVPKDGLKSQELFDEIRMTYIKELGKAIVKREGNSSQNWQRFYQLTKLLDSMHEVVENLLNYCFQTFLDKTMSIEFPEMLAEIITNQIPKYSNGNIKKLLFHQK
As to the kind of experiment: Hep G2 TAT IC50: inhibition of dexamethasone-induced TAT in HepG2 cells (384 well). In kind it is cell-based. The protocol: Glucocorticoid mediated activation of TAT occurs by transactivation of glucocorticoid response elements in the TAT promoter by glucocorticoid receptor/agonist complex.
HepG2 cells were cultured using MEME media supplemented with 10% (v/v) foetal bovine serum, 2 mM L-glutamine, 1% (v/v) NEAA, and 1% (v/v) penstrep, at 37° C., 5%/95% (v/v) CO2/air.
Compounds were diluted from a 10 mM stock via an Echo Acoustic liquid handler into 10 μL assay media to generate a 10-point half-log dilution curve.
HepG2 cells were then lysed with 8 μL of cell lysis buffer containing a protease inhibitor cocktail for 15 minutes at 25° C. […] After a 2-hour incubation at 37° C. the reaction was terminated by the addition of 8 μL of 5 M aqueous potassium hydroxide solution, and the plates incubated for a further 30 minutes at 37° C.
[compound] and fitting the data to a 4-parameter logistic equation.
For `Cc1cc2c(cnn2-c2cc(C)c(=O)n(C)n2)cc1C1CN(S(=O)(=O)c2cnn(C)n2)CCN1CCC(F)(F)F` (stereo not shown) [Example 175, 2,4-dimethyl-6-(6-methyl-5-(4-(2-methyltriazol-4-yl)sulfonyl-1-(3,3,3-trifluoropropyl)piperazin-2-yl)indazol-1-yl)pyridazin-3-one], the IC50 (usually the concentration that gives 50% inhibition) turned out to be 1.24 µM.

In turn, `COc1cc2c(cnn2-c2ccc(F)cc2)cc1C1CN(S(=O)(=O)c2csc(C)n2)CCN1CCC(F)(F)F` (stereo not shown) [Example 188, 4-(3-(1-(4-fluorophenyl)-6-methoxy-indazol-5-yl)-4-(3,3,3-trifluoropropyl)piperazin-1-yl)sulfonyl-2-methyl-thiazole] showed an IC50 of 1.32 µM.

Regarding `COc1cc2c(cnn2-c2ccc(F)cc2)cc1C1CN(S(=O)(=O)c2csc(C)n2)CCN1CC1CCCC1` (stereo not shown) [Example 189, 4-(4-(cyclopentylmethyl)-3-(1-(4-fluorophenyl)-6-methoxy-indazol-5-yl)piperazin-1-yl)sulfonyl-2-methyl-thiazole], the IC50 turned out to be 1.66 µM.

`Cc1ncc(S(=O)(=O)N2CCCN(CCC(F)(F)F)C(c3cc4cnn(-c5ccc(F)cc5)c4cc3C)C2)s1` (stereo not shown) [Example 191, 5-((3-(1-(4-fluorophenyl)-6-methyl-indazol-5-yl)-4-(3,3,3-trifluoropropyl)-1,4-diazepan-1-yl)sulfonyl)-2-methyl-thiazole] gave an IC50 of 4.03 µM.

As to `COc1cc2c(cnn2-c2ccc(F)cc2)cc1C1CN(S(=O)(=O)N2CCOCC2)CCN1CCC(F)(F)F` (stereo not shown) [Example 192, 4-(3-(1-(4-fluorophenyl)-6-methoxy-indazol-5-yl)-4-(3,3,3-trifluoropropyl)piperazin-1-yl)sulfonylmorpholine], the IC50 was determined as 3.16 µM.

The compound `COc1cc2c(cnn2-c2ccc(F)cc2)cc1C1CN(S(=O)(=O)N2CCOCC2)CCN1CC1CC(F)(F)C1` (stereo not shown) [Example 193, 4-(4-((3,3-difluorocyclobutyl)methyl)-3-(1-(4-fluorophenyl)-6-methoxy-indazol-5-yl)piperazin-1-yl)sulfonylmorpholine] registered an IC50 of 2.79 µM.

On to `Cc1cc2c(cnn2-c2cc(C)c(=O)n(C)c2)cc1C1CN(S(=O)(=O)c2cccnc2)CCN1CCC(F)(F)F` (stereo not shown) [Example 194, 1,3-dimethyl-5-(6-methyl-5-(4-(3-pyridylsulfonyl)-1-(3,3,3-trifluoropropyl)piperazin-2-yl)indazol-1-yl)pyridin-2-one], for which the midpoint of inhibition, the IC50, lay at 0.443 µM.

`Cc1cc2c(cnn2-c2cc(C)c(=O)n(C)c2)cc1C1CN(S(=O)(=O)c2ccccn2)CCN1CCC(F)(F)F` (stereo not shown) [Example 195, 1,3-dimethyl-5-(6-methyl-5-(4-(2-pyridylsulfonyl)-1-(3,3,3-trifluoropropyl)piperazin-2-yl)indazol-1-yl)pyridin-2-one] returned an IC50 of 0.253 µM.

Compound `Cc1cc2c(cnn2-c2cc(C)c(=O)n(C)c2)cc1C1CN(S(=O)(=O)N(C)C)CCN1CCC(F)(F)F` (stereo not shown) [Example 196, 3-(1-(1,5-dimethyl-6-oxo-3-pyridyl)-6-methyl-indazol-5-yl)-N,N-dimethyl-4-(3,3,3-trifluoropropyl)piperazine-1-sulfonamide] registered an IC50 of 0.284 µM.

Compound `Cc1cc2c(cnn2-c2ccc(=O)n(C)c2)cc1C1CN(S(=O)(=O)c2cccnc2)CCN1CCC(F)(F)F` (stereo not shown) [Example 197, 1-methyl-5-(6-methyl-5-(4-(3-pyridylsulfonyl)-1-(3,3,3-trifluoropropyl)piperazin-2-yl)indazol-1-yl)pyridin-2-one] registered an IC50 of 1 µM.

Turning to `Cc1cc2c(cnn2-c2ccc(=O)n(C)c2)cc1C1CN(S(=O)(=O)N2CCOCC2)CCN1CCC(F)(F)F` (stereo not shown) [Example 198, 1-methyl-5-(6-methyl-5-(4-morpholinosulfonyl-1-(3,3,3-trifluoropropyl)piperazin-2-yl)indazol-1-yl)pyridin-2-one], the IC50 was 1.28 µM.

For `Cc1cc2c(cnn2-c2ccccc2)cc1C1CN(S(=O)(=O)c2cnn(C)n2)CCN1CCC(F)(F)F` (stereo not shown) [Example 199, 6-methyl-5-(4-(2-methyltriazol-4-yl)sulfonyl-1-(3,3,3-trifluoropropyl)piperazin-2-yl)-1-phenyl-indazole], it took 1.32 µM to reach half-maximal inhibition (IC50).

Turning to `Cc1cccc(-n2ncc3cc(C4CN(S(=O)(=O)c5cnn(C)n5)CCN4CCC(F)(F)F)c(C)cc32)c1` (stereo not shown) [Example 200, 6-methyl-5-(4-(2-methyltriazol-4-yl)sulfonyl-1-(3,3,3-trifluoropropyl)piperazin-2-yl)-1-(m-tolyl)indazole], it took 4.01 µM to reach half-maximal inhibition (IC50).

With `Cc1cc2c(cnn2-c2cccc(C(F)F)c2)cc1C1CN(S(=O)(=O)c2cnn(C)n2)CCN1CCC(F)(F)F` (stereo not shown) [Example 201, 1-(3-(difluoromethyl)phenyl)-6-methyl-5-(4-(2-methyltriazol-4-yl)sulfonyl-1-(3,3,3-trifluoropropyl)piperazin-2-yl)indazole], it took 3.85 µM to reach half-maximal inhibition (IC50).

`Cc1cc2c(cnn2-c2ccc(F)c(CO)c2)cc1C1CN(S(=O)(=O)c2cnn(C)n2)CCN1CCC(F)(F)F` (stereo not shown) [Example 202, (2-fluoro-5-(6-methyl-5-(4-(2-methyltriazol-4-yl)sulfonyl-1-(3,3,3-trifluoropropyl)piperazin-2-yl)indazol-1-yl)phenyl)methanol] had an IC50 of 1.03 µM.

In the case of `Cc1cc(-n2ncc3cc(C4CN(S(=O)(=O)c5cnn(C)n5)CCN4CCC(F)(F)F)c(C)cc32)ncn1` (stereo not shown) [Example 203, 6-methyl-1-(6-methylpyrimidin-4-yl)-5-(4-(2-methyltriazol-4-yl)sulfonyl-1-(3,3,3-trifluoropropyl)piperazin-2-yl)indazole], the IC50 is 9.33 µM.

Turning to `Cc1cnnc(-n2ncc3cc(C4CN(S(=O)(=O)c5cnn(C)n5)CCN4CCC(F)(F)F)c(C)cc32)c1` (stereo not shown) [Example 204, 6-methyl-1-(5-methylpyridazin-3-yl)-5-(4-(2-methyltriazol-4-yl)sulfonyl-1-(3,3,3-trifluoropropyl)piperazin-2-yl)indazole], 3.85 µM corresponded to half-maximal inhibition (IC50).

In turn, `COc1ccc(-n2ncc3cc(C4CN(S(=O)(=O)c5cnn(C)n5)CCN4CCC(F)(F)F)c(C)cc32)cc1` (stereo not shown) [Example 205, 1-(4-methoxyphenyl)-6-methyl-5-(4-(2-methyltriazol-4-yl)sulfonyl-1-(3,3,3-trifluoropropyl)piperazin-2-yl)indazole] displayed an IC50 of 2.88 µM.

`COc1ncc(-n2ncc3cc(C4CN(S(=O)(=O)c5cnn(C)n5)CCN4CCC(F)(F)F)c(C)cc32)cc1C` (stereo not shown) [Example 206, 1-(6-methoxy-5-methyl-3-pyridyl)-6-methyl-5-(4-(2-methyltriazol-4-yl)sulfonyl-1-(3,3,3-trifluoropropyl)piperazin-2-yl)indazole] yielded an IC50 of 6.12 µM.

In turn, `Cc1cc2c(cnn2-c2cc(F)c(=O)n(C)c2)cc1C1CN(S(=O)(=O)c2cnn(C)n2)CCN1CCC(F)(F)F` (stereo not shown) [Example 207, 3-fluoro-1-methyl-5-(6-methyl-5-(4-(2-methyltriazol-4-yl)sulfonyl-1-(3,3,3-trifluoropropyl)piperazin-2-yl)indazol-1-yl)pyridin-2-one] came in with an IC50 of 0.933 µM.

Regarding `CN(C)S(=O)(=O)N1CCN(CCC(F)(F)F)C(c2cc3cnn(-c4ccc(F)cc4)c3cc2Cl)C1` (stereo not shown) [Example 209, 3-(6-chloro-1-(4-fluorophenyl)indazol-5-yl)-N,N-dimethyl-4-(3,3,3-trifluoropropyl)piperazine-1-sulfonamide], the IC50 is 3.13 µM.

As to `O=S(=O)(N1CCOCC1)N1CCN(CCC(F)(F)F)C(c2cc3cnn(-c4ccc(F)cc4)c3cc2Cl)C1` (stereo not shown) [Example 210, 4-(3-(6-chloro-1-(4-fluorophenyl)indazol-5-yl)-4-(3,3,3-trifluoropropyl)piperazin-1-yl)sulfonylmorpholine], the IC50 was found to be 2.54 µM.

The compound `Cc1cc(-n2ncc3cc(C4CN(S(=O)(=O)N5CCOCC5)CCN4CCC(F)(F)F)c(Cl)cc32)cn(C)c1=O` (stereo not shown) [Example 211, 5-(6-chloro-5-(4-morpholinosulfonyl-1-(3,3,3-trifluoropropyl)piperazin-2-yl)indazol-1-yl)-1,3-dimethyl-pyridin-2-one] showed an IC50 of 0.589 µM.

In turn, `COc1cc2c(cnn2-c2ccc(F)cc2)cc1C1CN(S(=O)(=O)N(C)C)CCN1CCC(F)(F)F` (stereo not shown) [Example 212, 3-(1-(4-fluorophenyl)-6-methoxy-indazol-5-yl)-N,N-dimethyl-4-(3,3,3-trifluoropropyl)piperazine-1-sulfonamide] gave an IC50 of 1.44 µM.

In the case of `COc1cc2c(cnn2-c2ccc(F)cc2)cc1C1CN(S(=O)(=O)N(C)C)CCN1CC1CC(F)(F)C1` (stereo not shown) [Example 213, 4-((3,3-difluorocyclobutyl)methyl)-3-(1-(4-fluorophenyl)-6-methoxy-indazol-5-yl)-N,N-dimethyl-piperazine-1-sulfonamide], it took 2.24 µM to reach half-maximal inhibition (IC50).
